The values that follow come from US20100048714A1, “Methods and Compositions Related to Inhibition of Ceramide Synthesis” (University of Utah Research Foundation, priority 2006, published 2010).

The assay has as its system Sprague-Dawley rats. As to the kind of experiment: Liver ceramide and ceramide-enzyme expression in dexamethasone-treated rats. The format is in vivo, rat. Particulars: dexamethasone 40 μg/Kg IP every 12 hours for 36 hours; myriocin 300 μg/Kg IP for two weeks prior. The procedure: (A) Sprague-Dawley rats were treated with myriocin (300 μg/Kg, IP, solid bars) or saline (open bars) for two weeks prior to giving administering dexamethasone (40 μg/Kg, IP) or vehicle (5% ethanol) every 12 hours for 36 hours. Animals were euthanized by CO2 inhalation, livers were removed, and ceramide levels were assessed as described in SOM-Methods. Shown are mean ceramide levels+/−S.E.M, n=6 per group. The asterisk denotes that the sample was statistically different from vehicle-treated controls, p<0.05, student's t-test. (B) Livers were obtained as in A, above, and protein and mRNA were extracted as described in SOM-Methods. Levels of transcripts (solid bars) encoding serine palimitoyl transferase isoforms 1 and 2 (SPT1 and SPT2), dihydroceramide synthases (DCS) TL1, UOG, and TRH3, glucosylceramide synthase (GCS), and acid ceramidase (AC) transcripts were obtained by reverse-transcriptase polymerase chain reaction, normalized to β-actin. SPT2 protein levels (white bars) were detected by immunoblotting with an antibody from Cayman Chemicals (Ann Arbor, Mich.) and quantified on a Kodak Image Station 2000R (Rochester, N.Y.). […] (E) The glucose infusion rate required to maintain normal glycemia during insulin infusion (4mU/kg/min) was calculated as the average infusion rate during the 60 minute steady state. […]

As to `CCCCCCC(=O)CCCCCC/C=C/C[C@@H](O)[C@H](O)[C@@](N)(CO)C(=O)O` [Myriocin], the “ceramide levels in the liver” value is on record as “Reducing ceramide levels”.
